What is called IC50 is the concentration at which inhibition is half-maximal. As usually defined, the Papp A→B is how fast a substance crosses the layer from the apical side. By Papp B→A is commonly meant the apparent permeability from the basolateral to the apical side of a cell layer. One may read the Papp as a coefficient for how fast a substance crosses the barrier.

For series [1], the system named is MDA-MB-231. The series can be described thus: In vitro cytotoxicity assay (MTT). Format: cell-based, human. The conditions noted are these: Homo sapiens, MDA-MB-231, 144 h, 6 days incubation. Here is the method:
(§1) In vitro cytotoxicity of compounds of the disclosure was assessed on several cancerous human cell lines. Cells were plated in 96-well plates at an appropriate density depending on the cell line (between 1000 and 10 000 cells/well in 100µL of appropriate culture media) and incubated at 37°C for 24 hours. Serial dilutions of the tested compound previously dissolved in culture media (50µL) were added, and incubation was carried at 37°C out for 6 days. MTT (5mg/mL in PBS, 20µL, Sigma-Aldrich) was added into the wells, and incubation was continued for 1 to 4 hours at 37°C. Culture media was then carefully removed, and well content was homogeneously dissolved with acidified isopropanol. Absorbance values were measured on a microplate reader using a wavelength of 570 nm (with a reference wavelength of 690 nm). The IC50 concentration values compared to untreated control cells were determined using inhibition dose response curve fitting (GraphPad Prism 9). Exatecan mesylate (cat#HY-13631A) and CR8 (CAS# 294646-77-8; cat#HY-18340) were purchased from MedChemExpress (China).

For series [2], the system named is BT-474. The series can be described thus: In vitro cytotoxicity assay (MTT). The conditions noted are these: Homo sapiens, BT-474, 144 h, BT-474; 6 days incubation, MTT. Format: cell-based, human. As to the method:
as §1

In series [3] the test system is JIMT-1. The experiment in a line: In vitro cytotoxicity assay (MTT). Format: cell-based, human. Conditions: Homo sapiens, 144 h, 6 days incubation. Here is the method:
as §1

Series [4] relates to MDA-MB-453. The experiment in a line: In vitro cytotoxicity assay (MTT). The format is cell-based, human. The conditions noted are these: Homo sapiens, MDA-MB-453, 144 h, 6 days incubation. Here is the method:
as §1

Series [5] concerns SKBR-3. The series can be described thus: In vitro cytotoxicity assay (MTT). The format is cell-based, human. Conditions: Homo sapiens, SK-BR-3, 144 h, 6 days incubation. Here is the method:
as §1

Series [6] deals with NCI-N87. The series can be described thus: In vitro cytotoxicity assay (MTT). Format: cell-based, human. The conditions noted are these: Homo sapiens, NCI-N87, 144 h, 6 days incubation. As to the method:
as §1

The test system of series [7] is MCF-7. The experiment in a line: In vitro cytotoxicity assay (MTT). Conditions: Homo sapiens, MCF7, 144 h, 6 days incubation. Format: cell-based. Here is the method: as §1
Series [8] deals with HT-29. The experiment in a line: In vitro cytotoxicity assay (MTT). Format: cell-based. The conditions noted are these: Homo sapiens, 144 h, 6 days incubation. Here is the method: as §1
Series [9] deals with BXPC3. The series can be described thus: In vitro cytotoxicity assay (MTT). The format is cell-based. The conditions noted are these: Homo sapiens, BXPC-3, 144 h, 6 days incubation. As to the method: as §1
The target of series [10] is T1, BCRP (Homo sapiens, UniProt Q9UNQ0).
T1 construct: host or cells: MDCK-BCRP (Preadyport)
T1 sequence (Q9UNQ0 1-655): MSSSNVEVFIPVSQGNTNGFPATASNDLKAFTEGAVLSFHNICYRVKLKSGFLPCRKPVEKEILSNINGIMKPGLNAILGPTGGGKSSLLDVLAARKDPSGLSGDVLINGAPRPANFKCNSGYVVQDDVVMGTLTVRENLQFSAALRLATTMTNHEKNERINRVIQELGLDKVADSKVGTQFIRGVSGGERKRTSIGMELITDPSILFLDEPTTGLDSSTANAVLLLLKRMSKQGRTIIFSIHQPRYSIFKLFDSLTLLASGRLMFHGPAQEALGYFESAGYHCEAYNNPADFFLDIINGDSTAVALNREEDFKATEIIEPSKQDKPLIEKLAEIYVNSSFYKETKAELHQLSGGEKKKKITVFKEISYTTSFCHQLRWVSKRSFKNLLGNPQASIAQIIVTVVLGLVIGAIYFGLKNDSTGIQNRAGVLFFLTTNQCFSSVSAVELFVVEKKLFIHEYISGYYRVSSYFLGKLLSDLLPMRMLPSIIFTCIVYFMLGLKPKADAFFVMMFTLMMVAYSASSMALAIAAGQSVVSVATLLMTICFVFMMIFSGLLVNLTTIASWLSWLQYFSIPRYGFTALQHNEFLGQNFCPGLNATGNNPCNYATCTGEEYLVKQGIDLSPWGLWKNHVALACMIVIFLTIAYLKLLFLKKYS
The series can be described thus: BCRP efflux substrate assay in MDCK-BCRP. Format: in vitro ADME. Conditions: dog, pH 7.4, MDCK-BCRP; for efflux ratio at 60 min, 5 µM: read-out: Efflux ratio B/A; for Papp A→B at 60 min, 5 µM: read-out: Papp A (donor) to B (acceptor); for Papp B→A at 60 min, 5 µM: read-out: Papp B (acceptor) to A (donor). As to the method:
(§2) MDR1 and BCRP efflux substrate assays were conducted in MDCK-MDR1 and MDCK-BCRP in vitro models (Preadyport™, Solvo Biotech) at Symeres (Nederland). Compound of the invention (donor well concentration of 5µM) were incubated in cell monolayer 24-transwell Preadyport system, using Preadyport recommended pH 7.4 assay buffer (donor and receiver wells). After 60 min of incubation (no shaking), samples are collected and suspended into triple volume of 66% cold acetonitrile. Samples are stored at -20°C until thawed, centrifuged and analyzed by LC-MS. Quinidine was used a positive control for the MDR1 assay, and prazosin was used as a positive control for the BCRP assay. Exatecan was used as a control, known not to be an MDR1 substrate. Residual DMSO content from compounds stock solutions was below 1% (v/v). The assay was performed in duplicate. The quantification of test compounds in donor or receptor compartment is conducted using relative LC/MS peak areas (samples of initial incubation solutions are used as a single point calibrator), without any spiked standard samples. The data is used for estimating apparent permeability (Papp) and calculation of efflux ratio.

Series [11] in a line: in vitro. Conditions: PAMPA, pH 7.4. Background: PAMPA measures passive passage across an artificial lipid membrane.
For series [12], the target named is T2, MDR1 (Homo sapiens, UniProt P08183).
T2 construct: host or cells: MDCK-MDR1 (Preadyport)
The experiment in a line: MDR1 efflux substrate assay in MDCK-MDR1. The format is in vitro ADME. The conditions noted are these: dog; for Papp A→B at 60 min, 5 µM / Papp B→A at 60 min, 5 µM: MDCK-MDR1, 5µM, pH 7.4; for Papp A→B at 60 min, 5 µM: read-out: Papp A (donor) to B (acceptor); for Papp B→A at 60 min, 5 µM: read-out: Papp B (acceptor) to A (donor). As to the method:
as §2

The structures appear in SMILES notation. Where only a bound is given, the exact number is not on record here.

T2 sequence (P08183 whole entry): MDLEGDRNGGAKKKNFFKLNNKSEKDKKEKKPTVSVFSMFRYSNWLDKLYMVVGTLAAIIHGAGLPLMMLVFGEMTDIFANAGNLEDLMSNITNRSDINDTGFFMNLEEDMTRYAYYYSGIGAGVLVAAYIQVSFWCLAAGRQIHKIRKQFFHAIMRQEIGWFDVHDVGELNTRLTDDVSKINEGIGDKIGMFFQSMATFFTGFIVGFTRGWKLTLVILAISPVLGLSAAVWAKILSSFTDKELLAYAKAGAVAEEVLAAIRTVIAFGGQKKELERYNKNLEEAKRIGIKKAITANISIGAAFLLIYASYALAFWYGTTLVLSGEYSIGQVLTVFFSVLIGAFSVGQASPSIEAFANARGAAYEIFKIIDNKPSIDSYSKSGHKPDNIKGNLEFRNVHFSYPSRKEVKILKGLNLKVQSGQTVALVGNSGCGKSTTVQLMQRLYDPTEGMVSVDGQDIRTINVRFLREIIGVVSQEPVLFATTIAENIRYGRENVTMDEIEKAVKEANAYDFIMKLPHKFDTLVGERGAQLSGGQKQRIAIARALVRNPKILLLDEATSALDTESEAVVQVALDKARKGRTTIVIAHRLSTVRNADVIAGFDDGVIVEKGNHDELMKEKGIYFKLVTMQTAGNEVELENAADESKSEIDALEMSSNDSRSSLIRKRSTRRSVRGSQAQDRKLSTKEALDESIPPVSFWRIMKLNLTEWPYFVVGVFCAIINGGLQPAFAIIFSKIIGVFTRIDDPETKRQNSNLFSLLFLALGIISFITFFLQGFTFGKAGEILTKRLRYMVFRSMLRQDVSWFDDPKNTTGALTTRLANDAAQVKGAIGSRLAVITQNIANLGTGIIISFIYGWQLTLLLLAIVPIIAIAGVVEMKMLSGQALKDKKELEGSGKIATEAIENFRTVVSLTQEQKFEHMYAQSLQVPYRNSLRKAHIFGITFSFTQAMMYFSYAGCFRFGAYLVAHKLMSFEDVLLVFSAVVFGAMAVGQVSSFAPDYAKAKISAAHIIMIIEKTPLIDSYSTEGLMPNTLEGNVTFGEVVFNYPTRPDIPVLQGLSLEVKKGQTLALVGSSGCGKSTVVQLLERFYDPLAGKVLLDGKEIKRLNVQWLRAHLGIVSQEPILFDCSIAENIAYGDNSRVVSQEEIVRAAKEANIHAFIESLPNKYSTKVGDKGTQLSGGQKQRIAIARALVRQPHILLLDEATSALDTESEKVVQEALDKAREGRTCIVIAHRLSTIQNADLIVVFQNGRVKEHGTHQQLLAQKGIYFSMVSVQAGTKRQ

For the compound `Brc1cnn2c(NCc3ccc(-c4ccccn4)cc3)nc(NC3CCCNC3)nc12` (racemic) [Compound 2606], the half-maximal inhibitory concentration (IC50) is 0.46 nM in series [1]; 0.92 nM in series [2]; 0.88 nM in series [3]; 0.64 nM in [4]; 1.23 nM in series [5]; 0.77 nM in series [6]. The IC50 in series [7] was 6.88 nM; in series [8], 0.13 nM; in series [9] it was 1.16 nM.
As for `NC1CCN(c2nc(NCc3ccc(-c4ccccn4)cc3)n3ncc(Br)c3n2)CC1` [Compound 2559], the half-maximal inhibitory concentration (IC50) in series [1] came out at 1.35 nM; in [2] it was 2.63 nM; in series [3] it was 0.41 nM; in series [4] it was 1.52 nM; in series [5] it was 3.73 nM; in [6], 1.32 nM. The IC50 in series [7] was found to be 12.8 nM; in series [8], 0.21 nM; in series [9] it was 1.63 nM.
Turning to `NCC1CCN(c2nc(NCc3ccc(-c4ccccn4)cc3)n3ncc(Br)c3n2)CC1` [Compound 2560], the IC50 in series [1] was found to be 1.92 nM; in [2], 5.92 nM; in series [3], 0.6 nM; in series [4], 1.61 nM; in series [5] it was 4.33 nM; in [6] it was 3.29 nM. Besides, the efflux ratio at 60 min, 5 µM in [10] is 4.94. The results for the Papp A→B at 60 min, 5 µM in [10] and in series [12] were 7.53 ×10⁻⁶ cm/s and < 0.7 ×10⁻⁶ cm/s, respectively. In addition, the values for the apparent permeability from basolateral to apical (Papp B→A) at 60 min, 5 µM in series [10] and in series [12] were 37.2 ×10⁻⁶ cm/s and 26.6 ×10⁻⁶ cm/s, respectively. The compound further gave a Papp at 5 h, 50 µM in series [11] of 135 ×10⁻⁶ cm/s.
Consider `Brc1cnn2c(NCc3ccc(-c4ccccn4)cc3)nc(NCC3CCNCC3)nc12` [Compound 2569], for which the IC50 in series [1] was found to be 11.2 nM; in [2], 15.2 nM; in [3], 6.7 nM; in series [4] it was 12.8 nM; in series [5], 62.6 nM; in series [6], 19.7 nM.
For the compound `Nc1ccc(Nc2nc(NCc3ccc(-c4ccccn4)cc3)n3ncc(Br)c3n2)cc1` [Compound 2584], the IC50 in series [1] worked out at 7.17 nM; in [2], 9.72 nM; in series [3], 7.61 nM; in series [4] it was 12.3 nM; in [5], 25.9 nM; in series [6] it was 9.44 nM.
`CNCCNc1nc(NCc2ccc(-c3ccccn3)cc2)n2ncc(Br)c2n1` [Compound 2586]: the IC50 in series [1] was found to be 1.44 nM; in series [2] it was 1.73 nM; in series [3], 1.13 nM; in series [4], 2.47 nM; in series [5], 6.59 nM; in [6], 3.14 nM. Further, the results for the IC50 in [7], in series [8] and in series [9] were 33.9 nM, 0.45 nM and 2.44 nM, respectively.
Turning to `N[C@H]1CC[C@H](Nc2nc(NCc3ccc(-c4ccccn4)cc3)n3ncc(I)c3n2)CC1` [Compound 2590], the IC50 was 0.74 nM in [1]; 1.33 nM in series [2]; 0.29 nM in series [3]; 1.76 nM in series [4]; 2.55 nM in series [5]; 2.42 nM in series [6].
On to `Brc1cnn2c(NCc3ccc(-c4ccccn4)cc3)nc(N3CCNCC3)nc12` [Compound 2601], for which the half-inhibitory concentration (IC50) stood at 0.86 nM in [1]; 1.86 nM in series [2]; 0.45 nM in series [3]; 1.92 nM in series [4]; 3.61 nM in [5]; 2.7 nM in [6]. The IC50 is 15.4 nM in series [7], 0.13 nM in series [8] and 1.72 nM in [9].
For the compound `Brc1cnn2c(NCc3ccc(-c4ccccn4)cc3)nc(N3CCC(N4CCNCC4)CC3)nc12` [Compound 2622], the IC50 is 12.7 nM in series [1]; 13.5 nM in series [2]; 4.84 nM in series [3]; 21.1 nM in series [4]; 2.24 nM in [5]; 3 nM in series [6]. In addition, the half-maximal inhibitory concentration (IC50) in [7] was > 100 nM; in [8], 8.25 nM; in [9], 36.1 nM.
`N[C@H]1CC[C@H](Nc2nc(NCc3ccc(-c4ccccn4)cc3)n3ncc(Cl)c3n2)CC1` [Compound 2629]: the IC50 came out at 0.66 nM in [1]; 1.75 nM in series [2]; 0.11 nM in series [3]; 0.77 nM in series [4]; 0.27 nM in [5]; 0.94 nM in series [6]. The 50% inhibitory concentration (IC50) in series [7] was 3.91 nM; in series [8] it was 0.36 nM; in series [9] it was 1.17 nM.
Consider `N[C@H]1CC[C@H](CNc2nc(NCc3ccc(-c4ccccn4)cc3)n3ncc(Br)c3n2)CC1` [Compound 2635], for which the IC50 in series [1] was 12.9 nM; in series [2] it was 23.1 nM; in series [3] it was 3.52 nM; in [4], 17.9 nM; in series [5], 0.83 nM; in [6], 15.9 nM. In addition, the IC50 is > 100 nM in [7], 8.93 nM in series [8] and 39.7 nM in series [9].
Consider `N[C@H]1CCC[C@@H](Nc2nc(NCc3ccc(-c4ccccn4)cc3)n3ncc(Br)c3n2)C1` [Compound 2670], for which the IC50 in series [1] is 2.67 nM; in series [2], 5.77 nM; in series [4], 9.19 nM; in [5], 0.72 nM; in series [6], 2.53 nM. In addition, the efflux ratio at 60 min, 5 µM in [10] is 5.93. The Papp A→B at 60 min, 5 µM is 5.02 ×10⁻⁶ cm/s in series [10] and < 0.5 ×10⁻⁶ cm/s in [12]. The basolateral-to-apical permeability (Papp B→A) at 60 min, 5 µM was determined as 29.8 ×10⁻⁶ cm/s in series [10] and 23.5 ×10⁻⁶ cm/s in series [12]. In [11], this compound yielded a Papp at 5 h, 50 µM of 132 ×10⁻⁶ cm/s.
On to `CC[C@@]1(O)C(=O)OCc2c1cc1n(c2=O)Cc2c-1nc1cc(F)c(C)c3c1c2[C@@H](N)CC3` [Exatecan, reference compound], for which, in series [10], the efflux ratio at 60 min, 5 µM was determined as 12.3; the Papp A→B at 60 min, 5 µM worked out at 1.43 ×10⁻⁶ cm/s; the Papp B→A at 60 min, 5 µM worked out at 17.6 ×10⁻⁶ cm/s. The compound also came in with a Papp at 5 h, 50 µM in series [11] of 58 ×10⁻⁶ cm/s. The efflux ratio at 60 min, 5 µM in series [12] (MDCK-MDR1, pH 7.4, read-out: Efflux ratio B/A) is 7.31. Also, in series [12], the Papp A→B at 60 min, 5 µM came to 2.28 ×10⁻⁶ cm/s and the Papp B→A at 60 min, 5 µM came out at 16.7 ×10⁻⁶ cm/s.

Source of the values: patent EP4512427A1, “ANTIBODY-DRUG CONJUGATES BASED ON MOLECULAR GLUE DEGRADERS AND USES THEREOF” (Mablink Bioscience, priority 2023, dated 2025).
